Here are results for 15 compounds from article PMC7006651, “Effect of 6-Benzoyl-benzothiazol-2-one scaffold on the pharmacological profile of α-alkoxyphenylpropionic acid derived PPAR agonists” (Journal of Enzyme Inhibition and Medicinal Chemistry, 2020).

Molecules are shown by their SMILES. Read-outs that look alike come from different tables or passages of the source.

The subject of one series is ob/ob mice. Put plainly: In vivo ob/ob mice: glycaemia, triglyceridemia, insulinemia, body weight.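 As to all read-outs here: male ob/ob mice aged 10–12 weeks, given the compound once daily by oral gavage as a 1% hydroxyethylcellulose suspension, 8–12 animals per group.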 As to conditions: oral, 4 days, synthesised compounds 8.4 µMkg^−1, references 3 mgkg^−1; for ΔBW (body weight variation between day 0 and day 4): expressed in % of rosiglitazone in the same study (= 100%), ob/ob mice; for Change (%) Gly (glycemia) / Change (%) Ins (insulin) / Change (%) TG (triglycerides): percent change versus control, ob/ob mice at day 4.

For series [1], the target named is T1, human PPARγ (Homo sapiens, UniProt P37231).
T1 sequence (P37231 235-505 limits assumed): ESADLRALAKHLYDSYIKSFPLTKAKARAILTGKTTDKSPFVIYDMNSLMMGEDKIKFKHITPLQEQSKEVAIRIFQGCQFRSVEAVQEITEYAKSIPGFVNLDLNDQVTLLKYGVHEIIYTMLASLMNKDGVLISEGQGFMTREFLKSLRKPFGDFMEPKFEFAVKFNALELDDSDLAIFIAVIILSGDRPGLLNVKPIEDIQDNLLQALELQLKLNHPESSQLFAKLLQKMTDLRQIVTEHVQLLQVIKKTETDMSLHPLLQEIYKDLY
Put plainly: Membrane-bound PPARγ binding assay ([3H]rosiglitazone competition, filtration). As to conditions: competition with [3H]rosiglitazone (4 nM), 180 min at 4 °C; read-out: Ki (nM), hPPARγ binding affinity. As for the experimental part: The membrane-associated PPARγ was used as the biological source as previously described. Binding buffer consisted of 10 mM Tris/HCl, pH 8.2, containing 50 mM KCl and 1 mM dithiothreitol. […] Radioactivity was measured in a TopCount apparatus (Packard).

The target of the next series is T2, human PPARα (Homo sapiens, UniProt Q07869).
T2 construct: expressed in transfected cells; host or cells: Cos-7
T2 sequence (Q07869 239-466 limits assumed): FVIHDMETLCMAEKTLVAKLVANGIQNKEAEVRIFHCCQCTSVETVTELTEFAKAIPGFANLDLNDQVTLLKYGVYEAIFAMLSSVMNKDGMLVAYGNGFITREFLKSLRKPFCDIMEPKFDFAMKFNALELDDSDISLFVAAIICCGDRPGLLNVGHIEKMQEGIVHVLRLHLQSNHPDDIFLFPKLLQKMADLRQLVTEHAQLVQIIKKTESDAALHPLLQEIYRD
Put plainly: Gene reporter (transactivation) assay, Cos-7 cells transfected with pGal4-hPPARα.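 As to all read-outs here: luciferase signal from a Gal4-driven reporter normalised to cotransfected β-galactosidase activity, cells exposed to rising compound concentrations with DMSO vehicle as control.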 It counts as cell-based. The note with it: for Emax: COS-7, 24 h, read-out: hPPAR gene reporter αGal4 (%); for Emax / hPPAR gene reporter αGal4 (%): Emax relative to maximum activation with WY14643 (10 µM) = 100%; for EC50: GAL4 chimeric hPPARα, read-out: hPPAR gene reporter αEC50; for EC50 / hPPAR gene reporter αGal4 (%): 24 h.

The target of series [2] is T3, human PPARγ (Homo sapiens, UniProt P37231).
T3 construct: expressed in transfected cells; host or cells: Cos-7
T3 sequence (P37231 238-503 limits assumed): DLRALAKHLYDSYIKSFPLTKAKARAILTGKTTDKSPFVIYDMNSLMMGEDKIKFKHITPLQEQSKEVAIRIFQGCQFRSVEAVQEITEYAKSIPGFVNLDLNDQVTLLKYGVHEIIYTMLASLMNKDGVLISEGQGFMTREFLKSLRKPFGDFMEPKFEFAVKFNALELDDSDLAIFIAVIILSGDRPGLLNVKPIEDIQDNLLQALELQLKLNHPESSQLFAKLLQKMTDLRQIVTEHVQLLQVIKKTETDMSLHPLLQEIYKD
Put plainly: Gene reporter (transactivation) assay, Cos-7 cells transfected with pGal4-hPPARγ.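 As to all read-outs here: luciferase reporter (pG5-TK) activity normalised to cotransfected β-galactosidase, cells exposed to increasing compound concentrations in DMEM with 0.2% FCS, DMSO vehicle as control.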 The series is classed as cell-based. The note with it: for Emax: COS-7, 24 h, read-out: hPPAR gene reporter γGal4 (%); for EC50: GAL4 chimeric hPPARγ, read-out: hPPAR gene reporter γEC50.
Description: (§1) Cos-7 cells were transiently transfected with luciferase reporter plasmid (pG5-TK-pGL3) in the presence of pGal4-hPPARα or pGal4-hPPARγ (these vectors express chimeric proteins containing the Gal4 DNA-binding domain fused to the human PPARα or PPARγ ligand binding domain coding sequence) expression vector. […] Cells were transfected in OptiMEM without FCS for 3 h at 37°, using polyethylenimine (PEI), with reporter and expression plasmids, as stated in figure’s legend. The plasmid pBluescript (Stratagene, La Jolla, CA) was used as carrier DNA to set the final amount of DNA to 5.5 µg/dish. The pCMV- ß-galactosidase expression plasmid was cotransfected as a control for transfection efficiency. […] After 16 h, cells were trypsinised and seeded in 96-well plates at the density of 2 × 10^4 cells/well and incubated for 6 h in 10% FCS containing DMEM. Cells were then incubated for 24 h in DMEM containing 0.2% FCS and increasing concentrations of the compound tested or vehicle (DMSO). At the end of the experiment, cells were washed once with ice-cold PBS and the luciferase and the β–galactosidase assays were performed as described previously[20]. Cells were incubated 24 h in the presence of indicated concentrations of compound. Luciferase activity was measured and normalised to internal control β-galactosidase activity. […] EC50 were estimated using Prism software (GraphPad). All transfection experiments were performed at least three times.

Setting [3] is: Emax relative to maximum activation with rosiglitazone (1 μM) = 100%, Cos-7 cells, 24 h.

Description for human PPARα: as §1
Description for ob/ob mice: The glucose- and triglyceride-lowering activities of the compounds prepared were then tested using 10–12-week-old male ob/ob mice. […] Mice had access to filtered (0.22 mm) tap water ad libitum and irradiated pelleted laboratory chow (transbreed, Special Diet Services, England) throughout the study. Compounds were prepared as a suspension in 1% hydroxyethylcellulose (HEC) for oral administration (10 mLkg^−1). The mice (n = 8–12 per group) were dosed by gavage daily between 15:00 and 17:00 for 4 days. Randomisation was performed based on glycaemia values. The body weight gain (DBW in grams) of the animals was determined by measuring the difference between body weight at the beginning and end of the study for each mouse. At day 5 between 9:00 and 11:00 the mice were weighed, and blood samples were collected into heparin-containing tubes by retro-orbital puncture (500 mL per mouse). […] Plasma samples were prepared by centrifugation (2000 g for 10 min), and stored at −20 °C. For triglycerides and insulin determination, the percent change in plasma level in the treated group was calculated relative to the mean plasma level in the vehicle-treated group. ANOVA, followed by Dunnett’s comparison test (one-tailed) was used to estimate significant differences between the plasma glycaemia, triglycerides, insulin, and DBW values between the control group and the individual compound-treated groups.
As a side effect index, body weight was also measured daily, and body weight variation was calculated as a percentage of the difference in body weight between days 4 and 0.

As for `O=C(O)C(Cc1ccc(OCCn2c(=O)sc3cc(C(=NO)c4ccccc4)ccc32)cc1)OCC(F)(F)F` (mixture of isomers) [Compound 39b, 3-{4-[2–(6-[(Z/E)-hydroxyimino-phenyl-methyl]-2-oxo-benzothiazol-3-yl)-ethoxy]-phenyl}-2–(2,2,2-trifluoro)ethoxypropionic acid], the melting point (usually the temperature, or range, at which the solid turns liquid) was in the range of 55 to 56 °C. Also, in the series with ob/ob mice, the “ΔBW (body weight variation between day 0 and day 4)” value (“ΔBW” below) is recorded as 75%; the “Change (%) Gly (glycemia)” value is on record as −18%; the “Change (%) Ins (insulin)” value is given as 10%; the “Change (%) TG (triglycerides)” value is listed as −30%. On human PPARγ [1], the inhibition constant Ki (usually the dissociation constant of the complex between target and ligand, obtained from inhibition or displacement) was 165 nM. At human PPARα, the Emax is 29%. Also, the Emax at human PPARγ [2] (setting [3]) was 44%. The EC50 on human PPARγ [2] (Cos-7 cells, 24 h) amounted to 10 nM.

For the compound `CCO[C@@H](Cc1ccc(OCCn2c(=O)sc3cc(/C(=N/OC)c4ccccc4)ccc32)cc1)C(=O)O` [Compound 44a, (S)-3-{4-[2–(6-[(E)-methoxyimino-phenyl-methyl]-2-oxo-benzothiazol-3-yl)-ethoxy]-phenyl}-2-ethoxypropionic acid], the melting point was 151 to 152 °C. For the same compound, in the series with ob/ob mice, the “ΔBW” value is 177%; the “Change (%) Gly (glycemia)” value is −46%; the “Change (%) Ins (insulin)” value is −81%; the “Change (%) TG (triglycerides)” value is −79%. At human PPARγ [1], the inhibition constant (Ki) came out at 0.7 nM. Moreover, at human PPARα, the Emax is 154% and the EC50 was found to be 32 nM. Besides, the Emax at human PPARγ [2] (setting [3]) was found to be 115%. The EC50 on human PPARγ [2] (Cos-7 cells, 24 h) is 2 nM.

As for `Cc1cccc(Nc2cc(Cl)nc(SCC(=O)O)n2)c1C` [WY14643, reference compound], the “hPPAR gene reporter αGal4 (%)” value on human PPARα was 100%.

Consider `CCOC(Cc1ccc(OCCN2C(=O)CSc3cc(C(=O)c4ccccc4)ccc32)cc1)C(=O)O` (stereo not drawn) [Compound 34, 3-{4-[2–(7-benzoyl-3-oxo-benzo[1, 4]thiazin-4-yl)-ethoxy]-phenyl}-2-ethoxypropionic acid], for which the melting point is 58 to 60 °C. On human PPARγ [1], the Ki was determined as 4 nM. In addition, on human PPARα, the Emax was 116% and the EC50 came to 2050 nM. The Emax on human PPARγ [2] (setting [3]) was 97%. Moreover, the EC50 at human PPARγ [2] (Cos-7 cells, 24 h) came out at 37 nM.

Take `CON=C(c1ccccc1)c1ccc2c(c1)sc(=O)n2CCOc1ccc(C[C@@H](OCC(F)(F)F)C(=O)O)cc1` [Compound 46b, (R)-3-{4-[2–(6-[(E)-methoxyimino-phenyl-methyl]-2-oxo-benzothiazol-3-yl)-ethoxy]-phenyl}-2–(2,2,2-trifluoro)ethoxypropionic acid]: the Ki at human PPARγ [1] stood at 33 nM. Further, on human PPARα, the “hPPAR gene reporter αGal4 (%)” value amounted to 117% and the EC50 came out at 1660 nM. For the same compound, the “hPPAR gene reporter γGal4 (%)” value at human PPARγ [2] (setting [3]) is reported as 116%. Moreover, the EC50 on human PPARγ [2] (Cos-7 cells, 24 h) is 9 nM.

For `CCOC(Cc1ccc(OCCN2C(=O)CSc3ccc(C(=O)c4ccccc4)cc32)cc1)C(=O)O` (stereo not drawn) [Compound 33, 3-{4-[2–(6-benzoyl-3-oxo-benzo[1, 4]thiazin-4-yl)-ethoxy]-phenyl}-2-ethoxypropionic acid], the melting point was in the range of 52 to 54 °C. In addition, the Ki on human PPARγ [1] is 220 nM. Besides, at human PPARα, the Emax was at most 20% and the EC50 is 10000 nM. In addition, the Emax on human PPARγ [2] (setting [3]) is at most 70%. The EC50 on human PPARγ [2] (Cos-7 cells, 24 h) was 219 nM.

On to `CCOC(Cc1ccc(OCCN2C(=O)COc3ccc(C(=O)c4ccccc4)cc32)cc1)C(=O)O` (stereo not drawn) [Compound 35, 3-{4-[2–(6-benzoyl-3-oxo-benzo[1, 4]oxazin-4-yl)-ethoxy]-phenyl}-2-ethoxypropionic acid], for which the melting point was 47 to 49 °C. Also, at human PPARγ [1], the Ki stood at 3 nM. Also, at human PPARα, the Emax was determined as 97%. At human PPARγ [2] (setting [3]), the Emax was above 100%. For the same compound, the EC50 at human PPARγ [2] (Cos-7 cells, 24 h) is 2 nM.

Compound `CCOC(Cc1ccc(OCCN2C(=O)Cc3cc(C(=O)c4ccccc4)ccc32)cc1)C(=O)O` (stereo not drawn) [Compound 37, 3-{4-[2–(5-benzoyl-2-oxo-2,3-dihydroindol-1-yl)ethoxy]phenyl}-2-ethoxypropionic acid] gave a melting point of 68 to 70 °C. Further, at human PPARγ [1], the Ki turned out to be 6.5 nM. Also, the Emax on human PPARα worked out at 100%. For the same compound, the Emax on human PPARγ [2] (setting [3]) was at most 75%. Moreover, at human PPARγ [2] (Cos-7 cells, 24 h), the EC50 was 40 nM.

For `CON=C(c1ccccc1)c1ccc2c(c1)sc(=O)n2CCOc1ccc(C[C@H](OCC(F)(F)F)C(=O)O)cc1` [Compound 44b, (S)-3-{4-[2–(6-[(E)-methoxyimino-phenyl-methyl]-2-oxo-benzothiazol-3-yl)-ethoxy]-phenyl}-2–(2,2,2-trifluoro)ethoxypropionic acid], in the series on ob/ob mice, the “ΔBW” value is recorded as −17%; the “Change (%) Gly (glycemia)” value was −36%; the “Change (%) Ins (insulin)” value was −89%; the “Change (%) TG (triglycerides)” value is −69%. The inhibition constant Ki at human PPARγ [1] came out at 3 nM. Further, on human PPARα, the “hPPAR gene reporter αGal4 (%)” value stood at 59% and the EC50 turned out to be 525 nM. The “hPPAR gene reporter γGal4 (%)” value on human PPARγ [2] (setting [3]) is 150%. Besides, the EC50 at human PPARγ [2] (Cos-7 cells, 24 h) was 0.9 nM.

Regarding `CCO[C@H](Cc1ccc(OCCn2c(=O)sc3cc(/C(=N/OC)c4ccccc4)ccc32)cc1)C(=O)O` [Compound 46a, (R)-3-{4-[2–(6-[(E)-methoxyimino-phenyl-methyl]-2-oxo-benzothiazol-3-yl)-ethoxy]-phenyl}-2-ethoxypropionic acid], the melting point lay within 151 to 152 °C. Moreover, the Ki on human PPARγ [1] came out at 86 nM. Besides, at human PPARα, the Emax came to 124% and the EC50 stood at 1480 nM. In addition, the Emax on human PPARγ [2] (setting [3]) is 87%. On human PPARγ [2] (Cos-7 cells, 24 h), the EC50 is 558 nM.

Take `COc1ccc(OC(=O)N(CC(=O)O)Cc2ccc(OCCc3nc(-c4ccccc4)oc3C)cc2)cc1` [mura, Muraglitazar, reference compound]: in the series on ob/ob mice, the “ΔBW” value is 206%; the “Change (%) Gly (glycemia)” value is recorded as −46%; the “Change (%) Ins (insulin)” value is listed as −46%; the “Change (%) TG (triglycerides)” value is −34%. Further, on human PPARα, the Emax amounted to 84% and the EC50 is 595 nM. Also, at human PPARγ [2], the Emax was determined as 128%.

For `CN(CCOc1ccc(CC2SC(=O)NC2=O)cc1)c1ccccn1` (stereo not drawn) [rosi, Rosiglitazone, reference compound], in the series with ob/ob mice, the “ΔBW” value came out at 100%; the “Change (%) Gly (glycemia)” value was −57%; the “Change (%) Ins (insulin)” value is −73%; the “Change (%) TG (triglycerides)” value is recorded as −46%.

As to `CCOC(Cc1ccc(OCCN2C(=O)C(F)(F)c3cc(C(=O)c4ccccc4)ccc32)cc1)C(=O)O` (stereo not drawn) [Compound 38, 3-{4-[2–(5-benzoyl-3,3-difluoro-2-oxo-2,3-dihydroindol-1-yl)ethoxy]phenyl}-2-ethoxy-propionic acid], on human PPARγ [1], the inhibition constant (Ki) turned out to be 4 nM. Besides, the Emax on human PPARα is 89%; at human PPARγ [2] (setting [3]) it was at most 75%. For the same compound, on human PPARγ [2] (Cos-7 cells, 24 h), the EC50 came to 5 nM.

`CCOC(Cc1ccc(OCCN2C(=O)COc3cc(C(=O)c4ccccc4)ccc32)cc1)C(=O)O` (stereo not drawn) [Compound 36, 3-{4-[2–(7-benzoyl-3-oxo-benzo[1, 4]oxazin-4-yl)-ethoxy]-phenyl}-2-ethoxypropionic acid]: the melting point was in the range of 36 to 38 °C. Further, the inhibition constant Ki at human PPARγ [1] amounted to 1 nM. On human PPARα, the Emax came out at 80%. For the same compound, the Emax on human PPARγ [2] (setting [3]) is above 100%. Further, the EC50 on human PPARγ [2] (Cos-7 cells, 24 h) amounted to 80 nM.

Compound `CCOC(Cc1ccc(OCCn2c(=O)sc3ccc(C(=O)c4ccccc4)cc32)cc1)C(=O)O` (stereo not drawn) [Compound 31, 3-{4-[2–(5-benzoyl-2-oxo-benzothiazol-3-yl)-ethoxy]-phenyl}-2-ethoxypropionic acid] yielded a melting point of 49 to 51 °C. Further, the Ki at human PPARγ [1] came out at 8 nM. Further, on human PPARα, the Emax was at least 80% and the EC50 stood at 256 nM. Moreover, on human PPARγ [2] (Cos-7 cells, 24 h), the EC50 was 61 nM.
